Holding throughout (test): growth of human tumour cells (NCI), 48 h
For assay [1], the system named is DU-145 prostate.
Assay [2] has as its system BT-549 breast.
Assay [3] concerns PC-3 prostate.
Assay [4] has as its system T-47D breast.

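Five concentrations, 48 hours, 96-well plates. Abbreviation: GI50, concentration required for 50% inhibition of growth. The concentration for full growth arrest is given as TGI.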

In the case of `CCOc1ccc(/C=C2\NC(=S)N(/C=C3\C(=O)Oc4ccccc4C3=O)C2=O)cc1`, the TGI amounted to 57.7 µM in assay [1], 54.9 µM in assay [2] and 42.3 µM in assay [3].
Consider `CCOC(=O)C(C(=O)OCC)C(=O)c1ccccc1C(=O)c1ccccc1`, for which the TGI in assay [4], in assay [1] and in assay [2] was > 100 µM throughout.
Regarding `Cc1ccc2nc(-c3ccc(N)c4ccccc34)[nH]c2c1`, the GI50 was 9.1 µM in assay [4], 0.437 µM in assay [1], 0.399 µM in assay [2] and 0.0706 µM in assay [3]. The TGI in assay [4] was > 100 µM; in assay [1] it was 24.8 µM; in assay [2], 21.1 µM; in assay [3], 22 µM.
As for `CCN(CC)CCn1c2ccc(OC)cc2c2sc3cc(OC)ccc3c(=O)c21`, the GI50 in assay [4] is 2 µM; in assay [1] it was 1.67 µM; in assay [2], 2.24 µM. In addition, the TGI in assay [4] was found to be 4.89 µM; in assay [1], 3.7 µM; in assay [2], 5.95 µM.
On to `COC(=O)[C@]12CC[C@@H](C)[C@H](C)[C@@H]1C1=CC[C@@H]3[C@@]4(C)C(C=O)=C[C@@](C)(COS(C)(=O)=O)C4[C@H](O)C[C@@]3(C)[C@]1(C)CC2` (some centres undefined), for which the GI50 in assay [4] is 1.8 µM; in assay [1], 1.69 µM; in assay [3] it was 1.39 µM. The TGI in assay [4] was 5.93 µM; in assay [1] it was 3.41 µM; in assay [3], 6.48 µM.
Regarding `COc1ccc2c(c1)c(-c1ccc(-c3cn(C)c4ccc(OC)cc34)[nH]1)cn2C`, the GI50 is 10.6 µM in assay [1], 2.09 µM in assay [2] and 1.58 µM in assay [3]. The figures for the TGI in assay [1], in assay [2] and in assay [3] were 31.1 µM, 5.3 µM and 5.71 µM, respectively.
As for `COc1ccc(-c2ccc(-c3ccc(C(=N)N)cn3)o2)cc1Cl`, the GI50 in assay [1] is 3.45 µM; in assay [2], 1.75 µM; in assay [3] it was 1.32 µM. The values for the TGI in assay [1], in assay [2] and in assay [3] were 11.3 µM, 3.21 µM and 2.68 µM, respectively.
`CN(C)CCCCn1ccc2c1C(=O)c1c(c(O)c3ccccc3c1O)C2=O`: the GI50 in assay [4] was 3.77 µM; in assay [1], 20.1 µM; in assay [3], 10 µM. For the same compound, the TGI in assay [4] was 22.8 µM; in assay [1], 41.9 µM; in assay [3], 23.4 µM.
Take `O=C1c2ccccc2-c2c1c1ccc([N+](=O)[O-])cc1c(=O)n2CCCNCCO`: in assay [4], the GI50 was 0.042 µM and the TGI is 1.71 µM. In assay [3], the GI50 is 0.0907 µM and the TGI came out at 1.52 µM.
Take `O=S(=O)(NC1=NCCN1C(=S)SN1CCn2c1nsc2=S)c1ccccc1Cl`: the figures for the GI50 in assay [4], in assay [1] and in assay [2] were 17 µM, 9.15 µM and 8 µM, respectively. Besides, the TGI in assay [4] is > 100 µM; in assay [1], 53.1 µM; in assay [2], 36 µM.
For the compound `Fc1ccc2c(c1)C1=C(CO2)C(c2ccc(Cl)cc2)NC(=S)N1` (centres undefined), the GI50 in assay [4] was 63.2 µM; in assay [1], 28 µM; in assay [3], 37.2 µM. The TGI in assay [4], in assay [1] and in assay [3] was > 100 µM each time.
As to `CC1(C)CC([P+](c2ccccc2)(c2ccccc2)c2ccccc2)=NN1`, the figures for the GI50 in assay [4], in assay [1] and in assay [2] were 0.91 µM, 4.34 µM and 1.03 µM, respectively. The TGI was 8.44 µM in assay [4], > 100 µM in assay [1] and 4.42 µM in assay [2].
`Nc1c(C(=O)N/N=C/c2ccc(-c3cc(Cl)c(Cl)cc3Cl)o2)cnn1-c1ccnc2c(C(F)(F)F)cccc12`: the GI50 is 2.93 µM in assay [4], 3.56 µM in assay [1] and 2.09 µM in assay [3]. Also, the TGI in assay [4] was > 100 µM; in assay [1] it was > 100 µM; in assay [3] it was 6.03 µM.
In the case of `Nc1ccc(C(OC(=O)c2cc3ccccc3c(Cc3c(O)c(C(=O)OC(c4ccc(N)cc4)(c4ccc(N)cc4)c4ccc(N)cc4)cc4ccccc34)c2O)(c2ccc(N)cc2)c2ccc(N)cc2)cc1`, the GI50 was 0.405 µM in assay [4], 2.18 µM in assay [1] and 1.22 µM in assay [3]. Further, the TGI in assay [4] is 18.9 µM; in assay [1], 15 µM; in assay [3], 20.4 µM.
Consider `Cc1cc(N(CCCNc2ccnc3cc(Cl)ccc23)Cc2ccc3c(c2)OCO3)nc(N2CCCCC2)n1`, for which the GI50 in assay [4] was 1.99 µM; in assay [2], 2.28 µM; in assay [3], 2.1 µM. For the same compound, the figures for the TGI in assay [4], in assay [2] and in assay [3] were 4.82 µM, 5.95 µM and 5.38 µM, respectively.

Values taken from PubChem BioAssay (NCI).
